We go through 16 compounds from US4977153A, “3-aminopropyloxyphenyl derivatives, pharmaceutical compositions containing them and method for the therapy of diseases” (Louis; William J., priority 1985, dated 1990).

Like-named read-outs stand apart in the source and are kept apart here.

For data set [1], the target named is T1, beta adrenoceptor (guinea pig atrium) (Cavia porcellus, UniProt H0W3H1).
T1 construct: in the spontaneously beating guinea pig atrium; from tissue; host or cells: guinea pig atrium, spontaneously beating
Description: beta adrenoceptor blocking activity in the spontaneously beating guinea pig atrium (inhibition of positive chronotropic isoproterenol effect). In kind it is cell-based.

Data set [2] concerns the target T2, beta adrenoceptor (guinea pig trachea) (Cavia porcellus, UniProt Q8K4Z4).
T2 construct: tracheal preparations of the guinea pig; from tissue; host or cells: guinea pig tracheal muscle
Briefly: inhibition of isoproterenol-induced relaxation in guinea pig tracheal preparations (cardioselectivity). In kind it is cell-based. As to conditions: guinea pig trachea, in words.

Data set [3] deals with T3, beta adrenoceptor (heart) (Rattus norvegicus, UniProt P18090).
T3 construct: from tissue; host or cells: heart in the whole animal (pithed rat, in vivo)
Briefly: inhibition of isoproterenol-induced tachycardia in the pithed rat. The following applies: read-out: Pithed Rat Effective Dose (ID50). In kind it is in vivo.

Data set [4] concerns resting heart rate in the pithed rat. Description: intrinsic sympathomimetic activity: increase in resting heart rate in the pithed rat. The data set is classed as in vivo. The following applies: maximum effect of cumulative doses of drug up to 3 mg/kg.
For data set [5], the system named is beta adrenoceptor (guinea pig trachea). Briefly: inhibition of isoproterenol-induced relaxation in guinea pig tracheal preparations (cardioselectivity). As to conditions: selectivity index, guinea pig trachea vs atrium. The data set is classed as cell-based.
For data set [6] the following is noted: in words; cited from earlier work.
The test system of data set [7] is resting heart rate in the pithed rat. The following applies: in words; cited from earlier work.
Setting [8] is: dose which doubles the concentration of isoproterenol needed to elicit a 50% increase in heart rate, spontaneously beating guinea pig atrium, read-out: Guinea Pig Atrium, Effective Molar Dose (ID50).
Setting [9] is: inhibition of isoproterenol-induced tachycardia, pithed rat.

T1 sequence (H0W3H1 1-470): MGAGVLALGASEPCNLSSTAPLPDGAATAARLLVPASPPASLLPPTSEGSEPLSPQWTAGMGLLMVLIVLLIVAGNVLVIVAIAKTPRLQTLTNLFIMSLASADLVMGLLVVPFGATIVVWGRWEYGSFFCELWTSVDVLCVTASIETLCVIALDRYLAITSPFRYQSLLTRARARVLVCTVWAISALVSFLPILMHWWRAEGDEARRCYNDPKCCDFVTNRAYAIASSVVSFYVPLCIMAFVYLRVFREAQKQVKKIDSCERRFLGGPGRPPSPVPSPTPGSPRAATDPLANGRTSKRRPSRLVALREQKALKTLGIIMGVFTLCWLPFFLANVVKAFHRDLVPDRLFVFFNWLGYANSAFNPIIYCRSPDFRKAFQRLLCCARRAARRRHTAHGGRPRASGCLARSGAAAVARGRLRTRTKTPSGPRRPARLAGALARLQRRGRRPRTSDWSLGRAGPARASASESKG
T3 sequence (P18090 whole entry): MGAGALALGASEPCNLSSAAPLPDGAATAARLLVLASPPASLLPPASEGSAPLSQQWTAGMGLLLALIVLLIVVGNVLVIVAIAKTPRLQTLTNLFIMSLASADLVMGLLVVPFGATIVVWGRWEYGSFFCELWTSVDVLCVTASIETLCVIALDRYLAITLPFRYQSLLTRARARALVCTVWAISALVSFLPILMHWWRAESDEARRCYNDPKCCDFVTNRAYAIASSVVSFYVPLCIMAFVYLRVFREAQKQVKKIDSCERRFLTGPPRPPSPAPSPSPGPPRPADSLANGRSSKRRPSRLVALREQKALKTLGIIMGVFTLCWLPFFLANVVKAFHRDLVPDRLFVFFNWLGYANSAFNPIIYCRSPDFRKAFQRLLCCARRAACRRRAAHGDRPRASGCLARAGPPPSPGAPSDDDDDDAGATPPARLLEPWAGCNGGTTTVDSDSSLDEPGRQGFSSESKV
T2 sequence (Q8K4Z4 whole entry): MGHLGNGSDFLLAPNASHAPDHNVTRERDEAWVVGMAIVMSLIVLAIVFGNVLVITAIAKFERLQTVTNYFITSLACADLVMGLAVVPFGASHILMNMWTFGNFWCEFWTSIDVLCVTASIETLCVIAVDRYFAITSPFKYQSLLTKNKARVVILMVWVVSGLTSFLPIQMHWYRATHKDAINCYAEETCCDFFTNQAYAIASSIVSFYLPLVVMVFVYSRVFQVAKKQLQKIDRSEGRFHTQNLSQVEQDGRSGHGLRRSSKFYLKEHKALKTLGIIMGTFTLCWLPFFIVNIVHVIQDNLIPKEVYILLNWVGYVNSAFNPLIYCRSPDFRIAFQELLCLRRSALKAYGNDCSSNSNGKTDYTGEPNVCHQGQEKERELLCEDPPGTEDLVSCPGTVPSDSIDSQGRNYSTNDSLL

Compound `CC(C)NCC(O)COc1ccc(CC(N)=O)cc1` (stereo not drawn) [Atenolol, reference compound] had a Kb in data set [1] of 200 nM. Also, the “blocking actions of the isoproterenol response in the trachea” value in data set [2] is listed as “significant blocking actions of the isoproterenol response in the trachea”. Also, the ED50 in data set [3] (rat) was 0.03 mg/kg. In data set [4], the “Maximum Change in Resting Heart Rate in the Pithed Rat” value (“Maximum Change in Resting Heart Rate” for short) was 0. With `CC(C)NCC(O)COc1ccc(CCOCC2CC2)cc1` (stereo not drawn) [Betaxolol, reference compound], the “Maximum Change in Resting Heart Rate” value in data set [4] worked out at 0.

In the case of `CCCOCCOc1ccc(OCC(O)CNCCNC(=O)Nc2ccc3[nH]ccc3c2)c(C#N)c1` (stereo not drawn) [Example 1, N-[2-[3-[2-cyano-4-(2-propoxyethoxy)phenoxy]-2-hydroxypropylamino]-ethyl]-N'-(1H-indol-5-yl)-urea], in data set [1] (setting [8]), the Kb is 3 nM. In data set [5], the “selectivity (cardiac atrial vs tracheal)” value was determined as 17000. In addition, in data set [3] (setting [9]), the ED50 came to 0.002 mg/kg. In addition, the “Maximum Change in Resting Heart Rate” value in data set [4] is “+101”.

For `COCCOc1ccc(OCC(O)CNCCNC(=O)Nc2ccc3[nH]ccc3c2)c(C#N)c1` (stereo not drawn) [Example 6], the Kb in data set [1] (setting [8]) amounted to 13 nM. With `CCCOCCOc1ccc(OCC(O)CNCCNC(=O)Cc2ccc3[nH]ccc3c2)c(C#N)c1` (stereo not drawn) [Example 9], the Kb in data set [1] (setting [8]) turned out to be 25 nM. `CCCOCCOc1ccc(OCC(O)CNCCNC(=O)Cc2ccsc2)c(C#N)c1` (stereo not drawn) [Example 11]: the Kb in data set [1] (setting [8]) came to 12 nM. Besides, in data set [4], the “Maximum Change in Resting Heart Rate” value is “+66”. With `CCCCOCCOc1ccc(OCC(O)CNCCNC(=O)Nc2ccc3[nH]ccc3c2)c(C#N)c1` (stereo not drawn) [Example 13], the “Maximum Change in Resting Heart Rate” value in data set [4] was “+105”. With `N#Cc1cc(OCCOCCc2ccccc2)ccc1OCC(O)CNCCNC(=O)Nc1ccc2[nH]ccc2c1` (stereo not drawn) [Example 14], the Kb in data set [1] (setting [8]) turned out to be 10 nM.

Turning to `N#Cc1cc(OCCOCc2ccc(F)cc2)ccc1OCC(O)CNCCNC(=O)Nc1ccc2[nH]ccc2c1` (stereo not drawn) [Example 19], in data set [1] (setting [8]), the Kb was found to be 100 nM. Also, the ED50 in data set [3] (setting [9]) came to 0.1 mg/kg. For the same compound, in data set [4], the “Maximum Change in Resting Heart Rate” value was “+51”.

Turning to `CCCOCCOc1ccc(OCC(O)CNCCNC(=O)c2ccc3[nH]ccc3c2)c(C#N)c1` (stereo not drawn) [Example 20], the Kb in data set [1] (setting [8]) was 50 nM. In the case of `O=C(NCCNCC(O)COc1ccc(OCCOCC2CC2)cc1)c1ccco1` (stereo not drawn) [Example 23], in data set [3] (setting [9]), the ED50 was 0.03 mg/kg. Also, the “Maximum Change in Resting Heart Rate” value in data set [4] was “+42”. Regarding `CCCOCCOc1ccc(OCC(O)CNCCNC(=O)c2ccoc2)cc1` (stereo not drawn) [Example 28], the ED50 in data set [3] (setting [9]) stood at 0.003 mg/kg. Regarding `CCCOCCOc1ccc(OCC(O)CN[C@H](C)CNC(=O)c2ccco2)cc1` (stereo partly drawn) [Example 29], the Kb in data set [1] (setting [8]) was 30 nM. In addition, the ED50 in data set [3] (setting [9]) is 0.05 mg/kg.

Regarding `CCCOCCOc1ccc(OCC(O)CN[C@H](C)CNC(=O)c2ccco2)c(F)c1` (stereo partly drawn) [Example 33], the Kb in data set [1] (setting [8]) turned out to be 8 nM. Consider `CC(C)NCC(O)COc1cccc2[nH]ccc12` (stereo not drawn) [Pindolol, reference compound], for which the “Maximum Change in Resting Heart Rate” value in data set [4] was “+89”.

Take `CC(C)NCC(O)COc1cccc2ccccc12` (stereo not drawn) [Propranolol]: in data set [6], the “plasma cholesterol effect, known drug” value was “elevated plasma cholesterol” and the “rebound hypersensitivity after cessation, known drug” value was “rebound hypersensitivity occurring after cessation”. In addition, in data set [7], the “intrinsic sympathomimetic activity (ISA), known drug” value was “no ISA”. For the same compound, the “Maximum Change in Resting Heart Rate” value in data set [4] was 0.
